Assay results reported in patent publication US4496551A (priority 1983, dated 1985).

What was measured:
Format in all cases: in vivo
[1] = system: Cercospora arachidicola; test: peanut early leafspot control on peanut seedlings; conditions: Mycosphaerella arachidis, 336 h
Description: Compounds of the previous examples were again dissolved in acetone in an amount equal to 6% of the final volume and then suspended at a concentration of 100 ppm in purified water containing 250 ppm of the surfactant TREM 014 (polyhydric alcohol esters). This suspension was sprayed to the point of run-off on peanut seedlings. The following day, the plants were inoculated with a spore suspension of Cercospora arachidicola, causal agent of peanut early leafspot, and incubated in a saturated humidity chamber at 27° for 24 hours and then in a growth room for an additional 14 days, when disease ratings were made. Treated plants from successful treatments had few or no leafspots while the untreated plants had numerous leafspots on each leaf.

[2] = system: Pyricularia oryzae; test: whole plant or invertebrate; conditions: 168 h, read-out: % Control of Rice Blast
[3] = system: Venturia inaequalis; test: apple scab control on apple seedlings; conditions: Venturia inaequalis; 100 ppm
Description: Compounds of this invention were dissolved in acetone in an amount equal to 6% of the final volume and then suspended at a concentration of 100 ppm in purified water containing 250 ppm of the surfactant TREM 014 (polyhydric alcohol esters). This suspension was sprayed to the point of run-off on apple seedlings. The following day, the plants were inoculated with a spore suspension of the fungus Venturia inaequalis, causal agent of apple scab, and incubated in a saturated humidity chamber at 20° for 24 hours and then in a growth room for an additional 10-12 days. Treated plants from successful treatments had few or no apple scab lesions when compared to untreated plants which were covered with scab lesions.

[4] = system: Erysiphe cichoracearum; test: cucumber powdery mildew control on cucumber seedlings; conditions: Golovinomyces cichoracearum, 168 h, 7 days
Description: Compounds of the previous examples were again dissolved in acetone in an amount equal to 6% of the final volume and then suspended at a concentration of 100 ppm in purified water containing 250 ppm of the surfactant TREM 014 (polyhydric alcohol esters). This suspension was sprayed to the point of run-off on cucumber seedlings. The following day, the plants were inoculated with a spore suspension of the fungus Erysiphe cichoracearum, causal agent of cucumber powdery mildew, and incubated in a growth room for 7 days. Disease ratings were then made. Treated plants from successful treatments had little or no powdery mildew in contrast to untreated plants which were covered with powdery mildew.

[5] = system: Puccinia recondita var. tritici; test: wheat leaf rust control on wheat seedlings; conditions: 100 ppm, sprayed day before inoculation
Description: Compounds of this invention were dissolved in acetone in an amount equal to 6% of the final volume and then suspended at a concentration of 100 ppm in purified water containing 250 ppm of the surfactant TREM 014 (polyhydric alcohol esters). This suspension was sprayed to the point of run-off on wheat seedlings. The following day, the plants were inoculated with a spore suspension of Puccinia recondita var. tritici, causal agent of wheat leaf rust, and incubated in a saturated humidity chamber at 20° for 24 hours and then in a growth room for an additional 7 days, when disease ratings were made. Treated plants from successful treatments had few or no rust pustules while the untreated plants had numerous rust pustules on each leaf.

[6] = system: Helminthosporium maydis; test: southern corn leaf blight control on corn seedlings; conditions: Bipolaris maydis, 168 h
Description: Compounds of the previous example were again dissolved in acetone in an amount equal to 6% of the final volume and then suspended at a concentration of 100 ppm in purified water containing 250 ppm of the surfactant TREM 014 (polyhydric alcohol esters). This suspension was sprayed to the point of run-off on corn seedlings. The following day, the plants were inoculated with a spore suspension of Helminthosporium maydis, causal agent of southern corn leaf blight, and incubated in a saturated humidity chamber at 20° for 24 hours and then in a growth room for an additional 7 days, when disease ratings were made. Treated plants from successful treatments had few lesions while the untreated plants had numerous lesions on each leaf.

[7] = system: Phytophthora infestans; test: whole plant or invertebrate; conditions: Phytophthora infestans, in Solanum lycopersicum, 168 h, read-out: % Control of Tomato Late Blight
[8] = system: Rhizoctonia solani; test: rice sheath blight control on rice seedlings; conditions: Rhizoctonia solani, 168 h, 7 days
Description: Several compounds of the previous examples were again dissolved in acetone in an amount equal to 6% of the final volume and then suspended at a concentration of 100 ppm in purified water containing 250 ppm of the surfactant TREM 014 (polyhydric alcohol esters). This suspension was sprayed to the point of run-off on rice seedlings. The following day, the plants were inoculated with a mixture of bran and the mycelium of Rhizoctonia solani, causal agent of sheath blight of rice, and incubated in a growth room for 7 days. Disease ratings were then made. Treated plants from successful treatments had little sheath blight in contrast to untreated plants which were covered with sheath blight.

Structure (SMILES)	pest or weed control at 100 ppm [1]	pest or weed control at 100 ppm [2]	pest or weed control at 100 ppm [3]	pest or weed control at 100 ppm [4]	pest or weed control at 100 ppm [5]	pest or weed control at 100 ppm [6]	pest or weed control at 100 ppm [7]	pest or weed control at 100 ppm [8]
C[Si](C)(Cn1ccnc1)c1ccc(-c2ccc(Br)cc2)cc1 [(4'-Bromo-1,1'-biphenyl-4-yl)dimethyl(1H-imidazol-1-ylmethyl)silane]	90%	90%	50%	100%	100%	0%	0%	90%
C[Si](C)(Cn1ccnc1)c1ccc(Br)cc1 [(4-Bromophenyl)(1H-imidazol-1-ylmethyl)dimethylsilane]	0%	0%	0%	100%	0%	0%	30%	0%
C[Si](Cn1ccnc1)(c1ccccc1)c1ccc(Br)cc1 (stereo not drawn) [(4-Bromophenyl)(1H-imidazol-1-ylmethyl)methyl(phenyl)silane]	90%	0%	30%	100%	90%	0%	0%	0%
C[Si](C)(Cn1ccnc1)c1ccc(S(C)(=O)=O)cc1 [Dimethyl(1H-imidazol-1-ylmethyl)(4-methylsulfonylphenyl)silane]	0%	100%	80%	0%	0%	0%	0%	0%
CSc1ccc([Si](C)(C)Cn2ccnc2)cc1 [Dimethyl(1H-imidazol-1-ylmethyl)(4-methylthiophenyl)silane]	0%	0%	0%	100%	0%	0%	0%	0%
CCCCCCCCCCCCCCCCCC[Si](C)(C)Cn1ccnc1 [Dimethyl(1H-imidazol-1-ylmethyl)octadecylsilane]	0%	80%	80%	0%	0%	0%	0%	100%
CC(C)(C)c1ccc([Si](C)(C)Cn2ccnc2)cc1 [[4-(1,1-Dimethylethyl)phenyl](1H-imidazol-1-ylmethyl)dimethylsilane]	0%	80%	50%	80%	0%	70%	0%	0%
C[Si](Cn1ccnc1)(c1ccccc1Cl)c1ccccc1Cl [[bis(2-Chlorophenyl)](1H-imidazol-1-ylmethyl)methylsilane]	100%	90%	60%	100%	0%	90%	60%	40%
C[Si](Cn1ccnc1)(c1ccc(Br)cc1)c1ccc(Br)cc1 [[bis(4-Bromophenyl)](1H-imidazol-1-ylmethyl)methylsilane]	50%	80%	50%	100%	0%	0%	0%	0%
O[Si](Cn1ccnc1)(c1ccc(Cl)cc1)c1ccc(Cl)cc1 [[bis(4-chlorophenyl)]hydroxy(1H-imidazol-1-ylmethyl)silane]	50%	0%	0%	100%	80%	0%	0%	0%
C[Si](Cn1ccnc1)(c1ccc(-c2ccccc2)cc1)c1ccc(-c2ccccc2)cc1 [bis(1,1'-Biphenyl-4-yl)(1H-imidazol-1-ylmethyl)methylsilane]	60%	0%	50%	0%	0%	0%	0%	0%
C[Si](Cn1ccnc1)(c1ccc(Cl)cc1Cl)c1ccc(Cl)cc1Cl [bis(2,4-Dichlorophenyl)(1H-imidazol-1-ylmethyl)methylsilane]	90%	0%	40%	100%	100%	80%	0%	80%
O[Si](Cn1ccnc1)(c1ccc(F)cc1)c1ccc(F)cc1 [bis(4-Fluorophenyl)hydroxy(1H-imidazol-1-ylmethyl)silane]	50%	60%	0%	100%	100%	0%	0%	90%
Clc1ccc([Si](Cn2ccnc2)(c2ccc(Cl)cc2)c2ccc(Cl)cc2)cc1 [tris(4-Chlorophenyl)(1H-imidazol-1-ylmethyl)silane]	0%	0%	0%	100%	0%	0%	0%	0%
Fc1ccc([Si](Cn2ccnc2)(c2ccc(F)cc2)c2ccc(F)cc2)cc1 [tris(4-Fluorophenyl)(1H-imidazol-1-ylmethyl)silane]	0%	0%	0%	100%	80%	0%	0%	0%
